In US20240082331A1, “ANTI-OBESITY COMPOSITION CONTAINING, AS ACTIVE INGREDIENT, MORINGA OLEIFERA FERMENTATION PRODUCT PREPARED USING NOVEL MONASCUS PURPUREUS SL1” (MBIOMETHERAPEUTICS CO., LTD., priority 2021, published 2024):

System: 3T3-L1 preadipocytes
Experiment: Inhibition of adipocyte differentiation (AdipoRed assay)
Type: cell-based, mice
Conditions: FIG. 3
Experimental: Preadipocytes (3T3-L1) from mice were purchased from ATCC (American Type Culture Collection). DMEM culture medium, Trypsin/EDTA, FBS (fetal bovine serum), and BCS (Bovine calf serum) were purchased from Gibco (Invitrogen corporation). AdipoRed assay reagent for measurement was purchased from Cambrex. Specifically, 3T3-L1 preadipocytes were cultured in DMEM medium containing 10% BCS and antibiotics, and maintained in a CO 2 incubator with 5% carbon dioxide supply. The cells were seeded at a concentration of 1×10^6 cells in a 96-well plate and cultured until they reached 100% confluency. To measure adipocyte differentiation, the cells were treated with MD medium (0.5 mM 3-isobutyl-1-methylxanthine and 1 μM dexamethasone). After 2 days, the medium was replaced with DMEM medium containing 10% FBS, and further cultured for 6 days. Moringa powder and fermented Moringa extract were treated at various concentrations. […] After 10 minutes, fluorescence intensity was measured using a fluorescence intensity reader. Subsequently, the inhibitory effect on adipocyte differentiation in the six compounds isolated in Example 2 was measured. […]

`CC(=O)OC[C@H]1O[C@@H](Oc2c(-c3ccc(O)cc3)oc3cc(O)cc(O)c3c2=O)[C@H](O)[C@@H](O)[C@@H]1O` [MOFE-16-5, 6″-O-acetyl astragalin] was tested, and the “adipocyte differentiation inhibition activity of isolated compounds” value was “excellent adipocyte differentiation inhibition activity”.
